The record followed here is patent US9700047B2, “Macrocyclic picolinamides as fungicides” (Dow AgroSciences LLC, priority 2014, dated 2017).

SMILES strings stand for the structures. Like-named read-outs stand apart in the source and are kept apart here.

In the assay the test system is Puccinia triticina; Synonym: Puccinia recondita f sp. tritici. Kind of assay: Wheat brown rust (PUCCRT) disease control on wheat seedlings. The class given is in vivo. The conditions noted are these: for pest or weed control at 121.5 g/ha: Low Volume activity at 121.5 g/H; for pest or weed control at 100 ppm: High Volume activity at 100 ppm. As to the method: All fungicides were evaluated using the aforementioned method for their activity vs. all target diseases, unless stated otherwise. Wheat leaf blotch and brown rust activity were also evaluated using track spray applications, in which case the fungicides were formulated as EC formulations, containing 0.1% Trycol 5941 in the spray solutions. Wheat plants (variety Yuma) were grown from seed in a greenhouse in 50% mineral soil/50% soil-less Metro mix until the first leaf was fully emerged, with 7-10 seedlings per pot. These plants were inoculated with an aqueous spore suspension of Puccinia triticina either prior to or after fungicide treatments. […] The plants were then transferred to a greenhouse set at 24° C. for disease to develop. Fungicide formulation, application and disease assessment followed the procedures as described in the Example A.

The mark [1] stands for this setting: 24 h, 1 Day Protectant, read-out: PUCCRT 1DP % Control rating.
Setting [2] is: 72 h, 3 Day Curative, read-out: PUCCRT 3DC % Control rating.

Regarding `CCC[C@H]1CCC[C@H](NC(=O)c2nccc(OC)c2OCOC(C)=O)C(=O)O[C@@H](C)[C@@H]1c1ccccc1` [Compound 54], the pest or weed control at 121.5 g/ha reads like this: under setting [1], more than 70%; under setting [2], more than 70%.

On to `CCC[C@H]1CCC[C@H](NC(=O)c2nccc(OC)c2OC(C)=O)C(=O)O[C@@H](C)[C@@H]1c1ccccc1` [Compound 55], for which the pest or weed control at 121.5 g/ha reads like this: under setting [1], more than 70%; under setting [2], more than 70%.

As for `COc1ccnc(C(=O)N[C@H]2CCC[C@H](CCCc3ccccc3)[C@@H](CC(C)C)[C@H](C)OC2=O)c1OC(C)=O` [Compound 56], the pest or weed control at 121.5 g/ha runs as follows: under setting [1], more than 70%; under setting [2], less than 70%.

Take `COc1ccnc(C(=O)N[C@H]2CCC[C@H](CCCc3ccccc3)[C@@H](Cc3ccc(OC(F)(F)F)cc3)[C@H](C)OC2=O)c1OC(C)=O` [Compound 57]: the pest or weed control at 121.5 g/ha is, setting by setting: under setting [1], less than 70%; under setting [2], less than 70%.

`COc1ccnc(C(=O)N[C@H]2CCC[C@H](CCCc3ccccc3)[C@@H](Cc3ccc(OC(F)(F)F)cc3)[C@H](C)OC2=O)c1OC(=O)C(C)C` [Compound 58, 4-methoxy-2-(((3S,7S,8R,9S)-9-methyl-2-oxo-7-(3-phenylpropyl)-8-(4-(trifluoromethoxy)benzyl)oxonan-3-yl)carbamoyl)pyridin-3-yl isobutyrate]: the pest or weed control at 121.5 g/ha was less than 70% under setting [1] and less than 70% under setting [2].

With `COc1ccnc(C(=O)N[C@H]2CCC[C@H](CCCc3ccccc3)[C@@H](Cc3ccc(OC(F)(F)F)cc3)[C@H](C)OC2=O)c1OCOC(C)=O` [Compound 59], the pest or weed control at 121.5 g/ha is more than 70% under setting [1] and less than 70% under setting [2].

As for `COc1ccnc(C(=O)N[C@H]2CCC[C@H](CC3CC3)[C@@H](Cc3ccccc3)[C@H](C)OC2=O)c1OC(C)=O` [Compound 60], the pest or weed control at 121.5 g/ha was more than 70% under setting [1] and more than 70% under setting [2].

On to `COc1ccnc(C(=O)N[C@H]2CCC[C@H](CC3CC3)[C@@H](Cc3ccccc3)[C@H](C)OC2=O)c1OCOC(C)=O` [Compound 61], for which the pest or weed control at 121.5 g/ha was more than 70% under setting [1] and more than 70% under setting [2].

Turning to `COc1ccnc(C(=O)N[C@H]2CCC[C@H](Cc3ccccc3)[C@@H](Cc3ccc(F)cc3)[C@H](C)OC2=O)c1OC(C)=O` [Compound 62], the pest or weed control at 121.5 g/ha runs as follows: under setting [1], more than 70%; under setting [2], less than 70%.

Regarding `COc1ccnc(C(=O)N[C@H]2CCC[C@H](Cc3ccccc3)[C@@H](Cc3ccc(F)cc3)[C@H](C)OC2=O)c1OCOC(C)=O` [Compound 63], the pest or weed control at 121.5 g/ha is more than 70% under setting [1] and less than 70% under setting [2].

Consider `COc1ccnc(C(=O)N[C@H]2CCC[C@H](Cc3ccccc3)[C@@H](Cc3ccc(F)cc3)[C@H](C)OC2=O)c1OCOC(=O)C(C)C` [Compound 64], for which the pest or weed control at 121.5 g/ha by setting is: under setting [1], more than 70%; under setting [2], less than 70%.

Consider `COc1ccnc(C(=O)N[C@H]2CCC[C@H](Cc3ccc(C(F)(F)F)cc3)[C@@H](Cc3ccc(OC(F)(F)F)cc3)[C@H](C)OC2=O)c1OCOC(C)=O` [Compound 65], for which the pest or weed control at 121.5 g/ha is, setting by setting: under setting [1], less than 70%; under setting [2], less than 70%.

Regarding `CCOCC(=O)OCOc1c(OC)ccnc1C(=O)N[C@H]1CCC[C@H](Cc2ccc(C(F)(F)F)cc2)[C@@H](Cc2ccc(OC(F)(F)F)cc2)[C@H](C)OC1=O` [Compound 66], the pest or weed control at 121.5 g/ha under setting [1] was less than 70% and the pest or weed control at 121.5 g/ha under setting [2] is less than 70%.

For `COc1ccnc(C(=O)N[C@H]2CCC[C@H](Cc3ccc(C(F)(F)F)cc3)[C@@H](Cc3ccc(OC(F)(F)F)cc3)[C@H](C)OC2=O)c1OC(C)=O` [Compound 67], the pest or weed control at 121.5 g/ha runs as follows: under setting [1], less than 70%; under setting [2], less than 70%.

With `COc1ccnc(C(=O)N[C@H]2CCC[C@H](Cc3ccccc3)[C@@H](Cc3ccc(OC(F)(F)F)cc3)[C@H](C)OC2=O)c1OCOC(C)=O` [Compound 68], the pest or weed control at 121.5 g/ha was less than 70% under setting [1] and less than 70% under setting [2].

For `CCOCC(=O)OCOc1c(OC)ccnc1C(=O)N[C@H]1CCC[C@H](Cc2ccccc2)[C@@H](Cc2ccc(OC(F)(F)F)cc2)[C@H](C)OC1=O` [Compound 69], the pest or weed control at 121.5 g/ha by setting is: under setting [1], less than 70%; under setting [2], less than 70%.

Regarding `COc1ccnc(C(=O)N[C@H]2CCC[C@H](CCCc3ccccc3)[C@@H](Cc3ccccc3)[C@H](C)OC2=O)c1OCOC(C)=O` [Compound 70], the pest or weed control at 121.5 g/ha under setting [1] was more than 70% and the pest or weed control at 121.5 g/ha under setting [2] is less than 70%.

In the case of `CCCC[C@@H]1[C@@H](Cc2ccccc2)CCC[C@H](NC(=O)c2nccc(OC)c2O)C(=O)O[C@H]1C` [Compound 71, N-((3S,7R,8R,9S)-7-benzyl-8-butyl-9-methyl-2-oxooxonan-3-yl)-3-hydroxy-4-methoxypicolinamide], the pest or weed control at 100 ppm under setting [1] was more than 70% and the pest or weed control at 100 ppm under setting [2] was more than 70%.

Take `CCCC[C@@H]1[C@@H](Cc2ccc(C(F)(F)F)cc2)CCC[C@H](NC(=O)c2nccc(OC)c2O)C(=O)O[C@H]1C` [Compound 72]: the pest or weed control at 100 ppm reads like this: under setting [1], more than 70%; under setting [2], less than 70%.

In the case of `COc1ccnc(C(=O)N[C@H]2CCC[C@H](CCC(C)C)[C@@H](Cc3ccccc3)[C@H](C)OC2=O)c1O` [Compound 73], the pest or weed control at 100 ppm by setting is: under setting [1], more than 70%; under setting [2], less than 70%.

`COc1ccnc(C(=O)N[C@H]2CCC[C@H](Cc3ccccc3)[C@@H](Cc3ccccc3)[C@H](C)OC2=O)c1O` [Compound 74]: the pest or weed control at 100 ppm is more than 70% under setting [1] and more than 70% under setting [2].

For the compound `COc1ccnc(C(=O)N[C@H]2CCC[C@H](Cc3ccccc3)[C@@H](C3CCCC3)[C@H](C)OC2=O)c1O` [Compound 75], the pest or weed control at 100 ppm under setting [1] was more than 70% and the pest or weed control at 100 ppm under setting [2] is less than 70%.

As to `COc1ccnc(C(=O)N[C@H]2CCC[C@H](Cc3ccc(Cl)cc3)[C@@H](CC(C)C)[C@H](C)OC2=O)c1O` [Compound 76], the pest or weed control at 100 ppm by setting is: under setting [1], more than 70%; under setting [2], less than 70%.

On to `COc1ccnc(C(=O)N[C@H]2CCC[C@H](Cc3ccccc3)[C@@H](CCc3ccccc3)[C@H](C)OC2=O)c1O` [Compound 78], for which the pest or weed control at 100 ppm runs as follows: under setting [1], more than 70%; under setting [2], less than 70%.

With `COc1ccnc(C(=O)N[C@H]2CCC[C@H](Cc3ccc(Cl)cc3)[C@@H](Cc3ccccc3)[C@H](C)OC2=O)c1O` [Compound 79], the pest or weed control at 100 ppm is, setting by setting: under setting [1], more than 70%; under setting [2], less than 70%.

In the case of `COc1ccnc(C(=O)N[C@H]2CCC[C@H](Cc3ccc(C(F)(F)F)cc3)[C@@H](CC(C)C)[C@H](C)OC2=O)c1O` [Compound 80], the pest or weed control at 100 ppm was more than 70% under setting [1] and less than 70% under setting [2].

Turning to `COc1ccnc(C(=O)N[C@H]2CCC[C@H](Cc3ccc(C(F)(F)F)cc3)[C@@H](Cc3ccccc3)[C@H](C)OC2=O)c1O` [Compound 81], the pest or weed control at 100 ppm runs as follows: under setting [1], more than 70%; under setting [2], less than 70%.

As for `CCC[C@H]1CCC[C@H](NC(=O)c2nccc(OC)c2O)C(=O)O[C@@H](C)[C@@H]1Cc1ccccc1` [Compound 82], the pest or weed control at 100 ppm by setting is: under setting [1], more than 70%; under setting [2], more than 70%.

As for `COc1ccnc(C(=O)N[C@H]2CCC[C@H](CCC(C)C)[C@@H](CCc3ccccc3)[C@H](C)OC2=O)c1O` [Compound 83], the pest or weed control at 100 ppm by setting is: under setting [1], more than 70%; under setting [2], less than 70%.

`COc1ccnc(C(=O)N[C@H]2CCC[C@H](Cc3ccc(Cl)cc3)[C@@H](C3CCCC3)[C@H](C)OC2=O)c1O` [Compound 84]: the pest or weed control at 100 ppm runs as follows: under setting [1], more than 70%; under setting [2], less than 70%.

In the case of `COc1ccnc(C(=O)N[C@H]2CCC[C@H](CCCc3ccccc3)[C@@H](CCc3ccccc3)[C@H](C)OC2=O)c1O` [Compound 85], the pest or weed control at 100 ppm is more than 70% under setting [1] and less than 70% under setting [2].

With `COc1ccnc(C(=O)N[C@H]2CCC[C@H](Cc3ccc(C(F)(F)F)cc3)[C@@H](Cc3ccc(F)cc3)[C@H](C)OC2=O)c1O` [Compound 86], the pest or weed control at 100 ppm runs as follows: under setting [1], more than 70%; under setting [2], less than 70%.

For the compound `COc1ccnc(C(=O)N[C@H]2CCC[C@H](CCC(C)C)[C@@H](C3CCCC3)[C@H](C)OC2=O)c1O` [Compound 87], the pest or weed control at 100 ppm is, setting by setting: under setting [1], more than 70%; under setting [2], less than 70%.

Regarding `COc1ccnc(C(=O)N[C@H]2CCC[C@H](Cc3ccccc3)[C@@H](CCC(C)C)[C@H](C)OC2=O)c1O` [Compound 88], the pest or weed control at 100 ppm runs as follows: under setting [1], more than 70%; under setting [2], less than 70%.

Regarding `COc1ccnc(C(=O)N[C@H]2CCC[C@H](Cc3ccccc3)[C@@H](c3ccccc3)[C@H](C)OC2=O)c1O` [Compound 90], the pest or weed control at 100 ppm by setting is: under setting [1], more than 70%; under setting [2], more than 70%.

As to `CCC[C@H]1CCC[C@H](NC(=O)c2nccc(OC)c2O)C(=O)O[C@@H](C)[C@@H]1c1ccccc1` [Compound 91], the pest or weed control at 100 ppm was more than 70% under setting [1] and less than 70% under setting [2].

For `COc1ccnc(C(=O)N[C@H]2CCC[C@H](CCCc3ccccc3)[C@@H](CC(C)C)[C@H](C)OC2=O)c1O` [Compound 92], the pest or weed control at 100 ppm is, setting by setting: under setting [1], more than 70%; under setting [2], less than 70%.
